A short description of data set [1]: Compound was evaluated for oral bioavailability in human. It is filed as ADME, organism-based. The settings on record: in vivo.
Data set [2] can be described thus: Clearance rate is evaluated rats. It counts as ADME, organism-based. The conditions noted are these: rat, in vivo; read-out: Clearance rate.
Data set [3] in a line: Compound was evaluated for half-life in humans. It counts as ADME, organism-based. The conditions noted are these: human, in vivo.
Data set [4] can be described thus: Half-life was evaluated in rats. It counts as ADME, organism-based. The settings on record: rat, in vivo.
The test system of data set [5] is Canis familiaris. Description: Compound was tested for minimum effective dose in dogs through iv dose. It counts as functional. The settings on record: Canis lupus familiaris.
The species named for data set [6] is Rattus norvegicus. As to the kind of experiment: compound was evaluated for GH release in the rat; 10-30 ng/mL. It counts as functional, organism-based.
Data set [7] can be described thus: Oral bioavailability measured in dogs. It is filed as ADME, organism-based, Canis lupus familiaris. The conditions noted are these: dog, in vivo.
A short description of data set [8]: Half-life period measured in dogs. It counts as ADME, organism-based, Canis lupus familiaris. The conditions noted are these: dog, in vivo.
The species entered for data set [9] is Canis familiaris. Description: Compound is evaluated for elevated GH in beagles with peroral dose. It is filed as functional. The settings on record: Canis lupus familiaris, po.
Data set [10] relates to Canis familiaris. As to the kind of experiment: Compound is evaluated for elevated GH in beagles with intravenous dose. It is filed as functional. The conditions noted are these: Canis lupus familiaris.
The species named for data set [11] is Sus scrofa. As to the kind of experiment: Limited capacity to porcine pituitary membranes was evaluated. It is filed as functional.
The species entered for data set [12] is Rattus norvegicus. Description: In Vitro evaluation for growth hormone release from the pituitary incubates. It is filed as functional.
For data set [13], the species on record is Rattus norvegicus. Description: The concentration of binding sites was evaluated. It is filed as functional.
For data set [14], the species on record is Rattus norvegicus. Description: Compound was evaluated for binding affinity, which binds with high affinity to membranes isolated from rat hypothalamus. It is filed as functional.
Data set [15] is filed under the species Rattus norvegicus. As to the kind of experiment: In vitro efficacy was evaluated for growth hormone release.
The target of another data set is T1, Oxytocin receptor (Homo sapiens, UniProt P30559).
T1 sequence (P30559 whole entry): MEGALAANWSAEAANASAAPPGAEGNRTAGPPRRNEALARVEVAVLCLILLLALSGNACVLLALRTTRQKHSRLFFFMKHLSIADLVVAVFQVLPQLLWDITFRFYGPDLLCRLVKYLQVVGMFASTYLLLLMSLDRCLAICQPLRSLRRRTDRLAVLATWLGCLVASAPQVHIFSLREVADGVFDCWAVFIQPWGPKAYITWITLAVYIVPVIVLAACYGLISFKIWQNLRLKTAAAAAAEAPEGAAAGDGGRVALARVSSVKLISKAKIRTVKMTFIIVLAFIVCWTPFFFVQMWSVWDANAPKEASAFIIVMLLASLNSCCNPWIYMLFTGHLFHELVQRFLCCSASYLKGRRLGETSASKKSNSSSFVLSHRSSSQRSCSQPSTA
As to the kind of experiment: Antagonistic activity against Oxytocin receptor. It is filed as functional.

Data set [16] in a line: Half-life period measured in dog. It counts as ADME, organism-based, Canis lupus familiaris. The settings on record: in vivo.
The species entered for data set [17] is Rattus norvegicus. As to the kind of experiment: compound was evaluated for GH release in the rat pituitary cell culture assay. It is filed as functional. The conditions noted are these: Pituitary gland cell.
For data set [18], the species on record is Rattus norvegicus. Description: compound was evaluated for GH release in the rat pituitary cell. The conditions noted are these: Pituitary gland cell. It counts as functional.
Data set [19] is described as follows: Clearance rate was evaluated in rats. It counts as ADME, organism-based. The conditions noted are these: rat, in vivo; read-out: Clearance rate.
Data set [20] deals with Rattus norvegicus. Description: Compound was measured as maximal GH release which showed iv potency and efficacy. It counts as functional, organism-based.
For data set [21], the system named is Rattus norvegicus. Description: Potency measured in an anesthetized rat model. It is filed as functional, organism-based.
Data set [22] addresses Growth hormone secretagogue receptor type 1 (Homo sapiens, UniProt Q92847). As to the kind of experiment: Inhibitory concentration (biotinylated probe) is evaluated for [35S]- MK-0677 binding.
Data set [23] is filed under the species Rattus norvegicus. Description: Compound measured for stimulated GH release. It counts as functional, organism-based.
The species named for a further data set is Homo sapiens. As to the kind of experiment: compound was evaluated for GH release. It counts as functional, organism-based.
Data set [24] deals with Canis familiaris. As to the kind of experiment: Loss of body weight in dog is evaluated after compound was administered perorally to dog at a dose 5 mg/kg, once daily (control (wt) = 1.13+/-0.19). It is filed as functional, Canis lupus familiaris. The conditions noted are these: route oral.
The species entered for data set [25] is Sus scrofa. Description: Compound was measured for IGF-1 increases in swine on days 4, 7, 10, and 14 approximately. It is filed as functional.
For data set [26], the species on record is Sus scrofa. As to the kind of experiment: Compound was measured for elevated mean plasma IGF-1 (insulin like growth factor) concentrations in Swine. It is filed as functional, organism-based.
Data set [27] can be described thus: The intrinsic potency studied extensively in animals. It is filed as functional.
The nature of data set [28]: Compound was evaluated percentage of Oral bioavailability in dogs. It is filed as ADME, organism-based, Canis lupus familiaris. The settings on record: dog, in vivo.
The species entered for data set [29] is Rattus norvegicus. Description: Compound was tested for GH releasing from cultured rat pituitary cells (maximal increase in 15 min). It is filed as functional, Pituitary gland cell.
Data set [30] in a line: In vitro efficacy was evaluated for growth hormone release.
The species entered for data set [31] is Rattus norvegicus. As to the kind of experiment: compound was evaluated for GH release in rat. It counts as functional.

Where a SMILES comes first, the peptide text is derived from it. [ ]: non-standard residue; d: D form. dTrp(2-Me) = Cc1[nH]c2ccccc2c1C[C@@H](N)C(=O)O

Growth hormone secretagogue receptor type 1, sequence (Q92847 whole entry): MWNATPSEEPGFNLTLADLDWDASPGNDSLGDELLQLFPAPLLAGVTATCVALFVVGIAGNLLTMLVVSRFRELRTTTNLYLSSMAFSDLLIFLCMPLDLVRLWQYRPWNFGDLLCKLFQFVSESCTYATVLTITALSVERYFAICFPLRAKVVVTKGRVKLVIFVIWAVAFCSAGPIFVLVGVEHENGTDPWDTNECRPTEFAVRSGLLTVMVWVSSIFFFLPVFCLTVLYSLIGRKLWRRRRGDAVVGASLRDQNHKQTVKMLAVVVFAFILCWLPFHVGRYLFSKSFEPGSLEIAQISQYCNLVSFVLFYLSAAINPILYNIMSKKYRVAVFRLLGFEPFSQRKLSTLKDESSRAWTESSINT

For `C[C@H](NC(=O)[C@@H](Cc1c[nH]c2ccccc12)NC(=O)[C@@H](N)Cc1c[nH]cn1)C(=O)N[C@@H](Cc1c[nH]c2ccccc12)C(=O)N[C@H](Cc1ccccc1)C(=O)N[C@@H](CCCCN)C(N)=O` (H-H[dW]AW[dF]K-NH2), the bioavailability in data set [1] was found to be 0.3%. In [2], the clearance was determined as 25 mL/min/kg. The figures for the half-life in [3] and in data set [4] were 20 min and 22 min, respectively. In addition, the MED in the data set on Canis familiaris [5] was found to be 0.01 mg/kg.
`C[C@H](NC(=O)[C@H](Cc1c[nH]c2ccccc12)NC(=O)[C@@H](N)Cc1ccc(O)cc1)C(=O)N[C@@H](Cc1c[nH]c2ccccc12)C(=O)N[C@H](Cc1ccccc1)C(N)=O` yielded a Concentration in the data set listed under Rattus norvegicus [6] of 30 ng/mL.
In [7], `CC(C)(N)C(=O)N[C@H](COCc1ccccc1)C(=O)N1CCC2(CC1)CN(S(C)(=O)=O)c1ccccc12` [IBUTAMOREN] displayed a bioavailability of more than 60%. Besides, the half-life in data set [8] is 282 min. The MED was determined as 0.125 mg/kg in the data set listed under Canis familiaris [9] and 0.025 mg/kg with Canis familiaris [10]. In addition, in the data set listed under Sus scrofa [11], the Bmax (fM (mg of protein)-1) was 8. In addition, in the data set filed under Rattus norvegicus [12], the midpoint of the response, the EC50, lay at 1.3 nM. Moreover, the Bmax in the data set listed under Rattus norvegicus [13] worked out at 8 fmol/mg. In the data set listed under Rattus norvegicus [14], binding was characterised by a dissociation constant (Kd) of 0.17 nM.
Molecule `C[C@@H](O)CNC(C)(C)CC(=O)N[C@@H]1CCc2ccccc2N(Cc2ccc(-c3ccccc3-c3nn[nH]n3)cc2)C1=O` [L-692585] gave an EC50 in the data set filed under Rattus norvegicus [15] of 3 nM.
`C[C@@H](O)CN1CCC[C@@H](C(=O)NC2CC3CCC2(CS(=O)(=O)N2CCC4(CCc5ccccc54)CC2)C3(C)C)C1` (some centres undefined) registered an IC50 against Oxytocin receptor of 130 nM. The same molecule registered an EC50 in the data set listed under Rattus norvegicus [15] of 90 nM.
In turn, `CCOC(=O)[C@H]1CC2(CCN(C(=O)[C@@H](CCCc3ccccc3)NC(=O)C(C)(C)N)CC2)c2ccccc21` had a half-life in [16] of 102 min. Moreover, the EC50 in the data set listed under Rattus norvegicus [17] was 1.9 nM.
Take `CCOC(=O)[C@]1(Cc2ccccc2)CCCN(C(=O)[C@@H](Cc2c[nH]c3ccccc23)NC(=O)C(C)(C)N)C1`: the response in the data set listed under Rattus norvegicus [17] was half-maximal at 1.6 nM (EC50).
`CSCC[C@@H](NC(=O)[C@H](Cc1ccccc1)NC(=O)CNC(=O)[C@H](Cc1c[nH]c2ccccc12)NC(=O)[C@@H](N)Cc1ccc(O)cc1)C(N)=O` registered a Concentration in the data set filed under Rattus norvegicus [18] of 10 µg/mL.
For `CC(C)(N)C(=O)N[C@H](Cc1c[nH]c2ccccc12)C(=O)N1CCc2ccc(S(N)(=O)=O)cc2C1`, in the data set listed under Rattus norvegicus [17], the EC50 amounted to 3 nM. That is a single-digit nanomolar value.
Turning to `CC(C)(N)C(=O)N[C@H](Cc1c[nH]c2ccccc12)C(=O)N1CCC[C@]2(CC(=O)c3ccccc3O2)C1`, the response in the data set listed under Rattus norvegicus [17] was half-maximal at 1.8 nM (EC50).
With `C[C@H](NC(=O)[C@@H](Cc1c[nH]c2ccccc12)NC(=O)CCc1c[nH]cn1)C(=O)N[C@@H](Cc1c[nH]c2ccccc12)C(=O)N[C@H](Cc1ccccc1)C(=O)N[C@H](CO)CCCCN`, in data set [19], the clearance came out at 39 mL/min/kg. In addition, in data set [4], the half-life was determined as 11 min. Besides, the response in the data set with Rattus norvegicus [20] was half-maximal at 5 nM (EC50).
Regarding `C[C@H](NC(=O)[C@@H](Cc1c[nH]c2ccccc12)NC(=O)[C@@H](N)Cc1c[nH]cn1)C(=O)N[C@@H](Cc1c[nH]c2ccccc12)C(=O)N[C@@H](CN[C@H](CO)CCCCN)Cc1ccccc1`, the EC50 in the data set with Rattus norvegicus [21] turned out to be 0.5 nM.
Turning to `CC(C)(N)C(=O)N[C@H](COCc1ccccc1)C(=O)N1CCC2(CC1)CN(S(=O)(=O)CC(=O)NCCCCCCNC(=O)CCCC[C@@H]1SCC3NC(=O)NC31)c1ccccc12` (some centres undefined), the IC50 in data set [22] turned out to be 0.2 nM. The molecule also had an EC50 in the data set filed under Rattus norvegicus [23] of 2.5 nM.
Turning to `C[C@@H]1NC(=O)[C@H](Cc2ccc3ccccc3c2)NC(=O)[C@@H](N)CCCCNC(=O)CC[C@H](C(=O)N[C@@H](CCCCN)C(N)=O)NC(=O)[C@@H](Cc2ccccc2)NC(=O)[C@@H](Cc2c[nH]c3ccccc23)NC1=O`, in the data set filed under Homo sapiens, a half-maximal effect (EC50) was put at 0.43 nM.
On to `O=C(NC(Cc1c[nH]c2ccccc12)C(=O)N1CCC2(CCc3ccccc32)CC1)NC1CN2CCC1CC2` (centres undefined) [SPIROPIPERIDINE], for which half-maximal inhibition in the data set listed under Rattus norvegicus [17] (IC50) was put at 50 nM.
Molecule `CC(C)(N)C(=O)N[C@H](CCCc1ccccc1)C(=O)N1CCC2(CC1)CN(S(C)(=O)=O)c1ccccc12` registered a Body weight with Canis familiaris [24] of 0.21 kg. This molecule also yielded an Increase in the data set listed under Sus scrofa [25] of 60%. In the data set filed under Sus scrofa [26], the Plasma concentration came to 62%. Also, the EC50 in [27] is 1.5 nM.
Turning to `CC(C)(N)CC(=O)N[C@@H]1CCc2ccccc2N(Cc2ccc(-c3ccccc3-c3nn[nH]n3)cc2)C1=O`, the bioavailability in [28] was less than 5%. This molecule had a Max in the data set filed under Rattus norvegicus [29] of 300%. The same molecule returned an EC50 in [30] of 60 nM.
In the case of `Cc1[nH]c2ccccc2c1C[C@@H](NC(=O)[C@@H](N)Cc1c[nH]cn1)C(=O)N[C@@H](C)C(=O)N[C@@H](Cc1c[nH]c2ccccc12)C(=O)N[C@H](Cc1ccccc1)C(=O)N[C@@H](CCCCN)C(N)=O` [EXAMORELIN] (H-H[dTrp(2-Me)]AW[dF]K-NH2), the Activity in the data set listed under Rattus norvegicus [31] is 104 ng/mL.

The term bioavailability denotes the share of a dose that reaches the circulation, judged against a reference dose that is usually intravenous. Read a high bioavailability as good availability. In general, clearance refers to a measure of how efficiently the substance is removed, as volume per time. Usually half-life stands for how long it takes for the measured level to halve. Lower therefore signals fast loss. For orientation: EC50 means the concentration at which the effect is half-maximal. A high value points to a less potent agent. In general, Kd refers to the equilibrium constant for the complex coming apart. As a reminder, the IC50 is the concentration that gives 50% inhibition. Low readings indicate greater potency in that assay, high ones weaker potency in that assay.

Source of the values: ChEMBL document CHEMBL1131057, “Peptidomimetic growth hormone secretagogues. Design considerations and therapeutic potential” (J Med Chem, 1998).
